# According to PubChem BioAssay AID1963845 (Molecular Pharmacology Branch, DTP, NCI, 2024):
# Tested on: 429239-143-T-J1-PDC complex spheroid viability
# Assay: Anticancer human tumor 429239-143-T-J1-PDC patient-derived small cell lung carcinoma cell line growth inhibition [POLQ]
# Settings: for IC50: curve of first compound; for viability, T/C: stronger effect = lower value
# Outline: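 PDC + HUVEC + MSC complex spheroids; POLQ inhibitors ± partner drugs; top conc. at/near clinical Cmax, else 10 microM (SN-38 1 microM), half-log dilutions; 37 degrees C, 5% CO2.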
# [1] = second compound 0.0316 µM, first compound 0.0316 µM
# [2] = second compound 0.0316 µM, first compound 0.1 µM
# [3] = second compound 0.0316 µM, first compound 0.316 µM
# [4] = second compound 0.0316 µM, first compound 1 µM
# [5] = second compound 0.0316 µM, first compound 3.16 µM
# [6] = second compound 0.0316 µM, first compound 10 µM
# [7] = second compound 0.1 µM, first compound 0.0316 µM
# [8] = second compound 0.1 µM, first compound 0.1 µM
# [9] = second compound 0.1 µM, first compound 0.316 µM
# [10] = second compound 0.1 µM, first compound 1 µM
# [11] = second compound 0.1 µM, first compound 3.16 µM
# [12] = second compound 0.1 µM, first compound 10 µM
# [13] = second compound 0.316 µM, first compound 0.0316 µM
# [14] = second compound 0.316 µM, first compound 0.1 µM
# [15] = second compound 0.316 µM, first compound 0.316 µM
# [16] = second compound 0.316 µM, first compound 1 µM
# [17] = second compound 0.316 µM, first compound 3.16 µM
# [18] = second compound 0.316 µM, first compound 10 µM
# [19] = second compound 1 µM, first compound 0.0316 µM
# [20] = second compound 1 µM, first compound 0.1 µM
# [21] = second compound 1 µM, first compound 0.316 µM
# [22] = second compound 1 µM, first compound 1 µM
# [23] = second compound 1 µM, first compound 3.16 µM
# [24] = second compound 1 µM, first compound 10 µM
# [25] = second compound 3.16 µM, first compound 0.0316 µM
# [26] = second compound 3.16 µM, first compound 0.1 µM
# [27] = second compound 3.16 µM, first compound 0.316 µM
# [28] = second compound 3.16 µM, first compound 1 µM
# [29] = second compound 3.16 µM, first compound 3.16 µM
# [30] = second compound 3.16 µM, first compound 10 µM
# [31] = second compound 10 µM, first compound 0.0316 µM
# [32] = second compound 10 µM, first compound 0.1 µM
# [33] = second compound 10 µM, first compound 0.316 µM
# [34] = second compound 10 µM, first compound 1 µM
# [35] = second compound 10 µM, first compound 3.16 µM
# [36] = second compound 10 µM, first compound 10 µM
# 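Also: luminescence signal used as surrogate measure of viable cells; spheroids exposed to compounds for seven days before readout.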
# 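For viability, T/C in this document: 100% = DMSO vehicle control viability as luminescence relative to vehicle.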
compound,measurement,setting,value
Nc1ccn(C2OC(CO)C(O)C2(F)F)c(=O)n1 (stereo unspecified) + COC1C(OC(N)=O)C(O)C(Oc2ccc3c(O)c(NC(=O)c4ccc(O)c(CC=C(C)C)c4)c(=O)oc3c2C)OC1(C)C,IC50,second compound 0.0316 µM,< 0.0316 µM
same,IC50,second compound 0.1 µM,< 0.0316 µM
same,IC50,second compound 0.316 µM,< 0.0316 µM
same,IC50,second compound 1 µM,< 0.0316 µM
same,IC50,second compound 3.16 µM,< 0.0316 µM
same,IC50,second compound 10 µM,< 0.0316 µM
same,"viability, T/C",[1],23.4%
same,"viability, T/C",[2],19.2%
same,"viability, T/C",[3],19.7%
same,"viability, T/C",[4],16.5%
same,"viability, T/C",[5],17.5%
same,"viability, T/C",[6],16.4%
same,"viability, T/C",[7],15.1%
same,"viability, T/C",[8],17.8%
same,"viability, T/C",[9],18.2%
same,"viability, T/C",[10],17.4%
same,"viability, T/C",[11],17.3%
same,"viability, T/C",[12],16.1%
same,"viability, T/C",[13],22.2%
same,"viability, T/C",[14],17.1%
same,"viability, T/C",[15],16.7%
same,"viability, T/C",[16],18.4%
same,"viability, T/C",[17],16.9%
same,"viability, T/C",[18],14.8%
same,"viability, T/C",[19],17.4%
same,"viability, T/C",[20],17.4%
same,"viability, T/C",[21],17.8%
same,"viability, T/C",[22],16.1%
same,"viability, T/C",[23],18.4%
same,"viability, T/C",[24],21%
same,"viability, T/C",[25],14.9%
same,"viability, T/C",[26],13.9%
same,"viability, T/C",[27],19.1%
same,"viability, T/C",[28],12.5%
same,"viability, T/C",[29],16.3%
same,"viability, T/C",[30],13.5%
same,"viability, T/C",[31],14.5%
same,"viability, T/C",[32],16.9%
same,"viability, T/C",[33],17.5%
same,"viability, T/C",[34],20.4%
same,"viability, T/C",[35],17%
same,"viability, T/C",[36],17.1%
CCc1cc2c(N3CCc4c(cc(Cn5ccnc5)cc4-c4cn(C)nc4C(F)(F)F)C3=O)ccnc2c(OC)n1 + Cc1cccc(N(C)C(=O)C2C(O)CCN2c2nc(C)cc(C(F)(F)F)c2C#N)c1,IC50,second compound 0.0316 µM,> 10 µM
same,IC50,second compound 0.1 µM,> 10 µM
same,IC50,second compound 0.316 µM,> 10 µM
same,IC50,second compound 1 µM,> 10 µM
same,IC50,second compound 3.16 µM,> 10 µM
same,IC50,second compound 10 µM,8.42 µM
same,"viability, T/C",[1],117%
same,"viability, T/C",[2],102%
same,"viability, T/C",[3],98.2%
same,"viability, T/C",[4],88.4%
same,"viability, T/C",[5],85.3%
same,"viability, T/C",[6],49.8%
same,"viability, T/C",[7],103%
same,"viability, T/C",[8],113%
same,"viability, T/C",[9],93.2%
same,"viability, T/C",[10],89.1%
same,"viability, T/C",[11],85.7%
same,"viability, T/C",[12],57.6%
same,"viability, T/C",[13],116%
same,"viability, T/C",[14],97.8%
same,"viability, T/C",[15],96.8%
same,"viability, T/C",[16],86%
same,"viability, T/C",[17],78.3%
same,"viability, T/C",[18],56.6%
same,"viability, T/C",[19],107%
same,"viability, T/C",[20],95.4%
same,"viability, T/C",[21],89.2%
same,"viability, T/C",[22],87.8%
same,"viability, T/C",[23],86.7%
same,"viability, T/C",[24],56.6%
same,"viability, T/C",[25],104%
same,"viability, T/C",[26],108%
same,"viability, T/C",[27],96.5%
same,"viability, T/C",[28],95.6%
same,"viability, T/C",[29],77.7%
same,"viability, T/C",[30],50.8%
same,"viability, T/C",[31],111%
same,"viability, T/C",[32],91.8%
same,"viability, T/C",[33],104%
same,"viability, T/C",[34],96.5%
same,"viability, T/C",[35],72.2%
same,"viability, T/C",[36],46.1%
C#Cc1c(F)ccc2cc(O)cc(-c3ncc4c(N5CC6CCC(C5)N6)nc(OCC56CCCN5CC(F)C6)nc4c3F)c12 (stereo unspecified) + COC1C(OC(N)=O)C(O)C(Oc2ccc3c(O)c(NC(=O)c4ccc(O)c(CC=C(C)C)c4)c(=O)oc3c2C)OC1(C)C,IC50,second compound 0.0316 µM,> 10 µM
same,IC50,second compound 0.1 µM,> 10 µM
same,IC50,second compound 0.316 µM,> 10 µM
same,IC50,second compound 1 µM,> 10 µM
same,IC50,second compound 3.16 µM,> 10 µM
same,IC50,second compound 10 µM,> 10 µM
same,"viability, T/C",[1],109%
same,"viability, T/C",[2],92.7%
same,"viability, T/C",[3],113%
same,"viability, T/C",[4],92.9%
same,"viability, T/C",[5],99.9%
same,"viability, T/C",[6],92.9%
same,"viability, T/C",[7],104%
same,"viability, T/C",[8],113%
same,"viability, T/C",[9],103%
same,"viability, T/C",[10],97.7%
same,"viability, T/C",[11],93.2%
same,"viability, T/C",[12],91.1%
same,"viability, T/C",[13],104%
same,"viability, T/C",[14],95.3%
same,"viability, T/C",[15],99.2%
same,"viability, T/C",[16],98.8%
same,"viability, T/C",[17],95.2%
same,"viability, T/C",[18],106%
same,"viability, T/C",[19],94.7%
same,"viability, T/C",[20],106%
same,"viability, T/C",[21],96%
same,"viability, T/C",[22],105%
same,"viability, T/C",[23],98.8%
same,"viability, T/C",[24],97.4%
same,"viability, T/C",[25],103%
same,"viability, T/C",[26],101%
same,"viability, T/C",[27],102%
same,"viability, T/C",[28],92.9%
same,"viability, T/C",[29],114%
same,"viability, T/C",[30],98.2%
same,"viability, T/C",[31],101%
same,"viability, T/C",[32],98.7%
same,"viability, T/C",[33],91.5%
same,"viability, T/C",[34],92.5%
same,"viability, T/C",[35],106%
same,"viability, T/C",[36],102%
